Assay in all cases: Post-emergence efficacy, glasshouse spray test
Holding throughout (assay type): in vivo

One experiment deals with Setaia fabei (SETFA). Particulars: Setaria faberi, post-emergence, 312 h, evaluated after 13 days, read-out: Control of weed species after post-emergence application, SETFA (100=total damage to plant; 0=no damage to plant); for pest or weed control at 500 g/ha: Application Rate 500 g/Ha; for pest or weed control at 125 g/ha: Application Rate 125 g/Ha. As to the method: (§1) Seeds of a variety of test species were sown in standard soil in pots. After cultivation for 14 days (post-emergence) under controlled conditions in a glasshouse (at 24/16° C. day/night; 14 hours light; 65% humidity), the plants were sprayed with an aqueous spray solution derived from the dissolution of the technical active ingredient formula (I) in a small amount of acetone and a special solvent and emulsifier mixture referred to as IF50 (11.12% Emulsogen EL360 TM+44.44% N-methyl pyrrolidone+44.44% Dowanol DPM glycolether), to create a 50 g/l solution which was then diluted to required concentration using 0.25% or 1% Empicol ESC70 (Sodium lauryl ether sulphate)+1% ammonium sulphate as diluent. The test plants were then grown in a glasshouse under controlled conditions (at 24/16° C., day/night; 14 hours light; 65% humidity) and watered twice daily. After 13 days the test was evaluated (100=total damage to plant; 0=no damage to plant).
(§2) Ipomoea hederacea (IPOHE), Euphorbia heterophylla (EPHHL), Chenopodium album (CHEAL), Amaranthus palmeri (AMAPA), Lolium perenne (LOLPE), Digitaria sanguinalis (DIGSA), Eleusine indica (ELEIN), Echinochloa crus-galli (ECHCG), Setaia fabei (SETFA)

For experiment [1], the system named is Echinochloa crus-galli (ECHCG). Particulars: Echinochloa crus-galli, post-emergence, 312 h, evaluated after 13 days, read-out: Control of weed species after post-emergence application, ECHCG (100=total damage to plant; 0=no damage to plant); for pest or weed control at 500 g/ha: Application Rate 500 g/Ha; for pest or weed control at 125 g/ha: Application Rate 125 g/Ha. The protocol:
as §1, §2

Experiment [2] concerns Euphorbia heterophylla (EPHHL). Particulars: Euphorbia heterophylla, post-emergence, 312 h, evaluated after 13 days, read-out: Control of weed species after post-emergence application, EPHHL (100=total damage to plant; 0=no damage to plant); for pest or weed control at 500 g/ha: Application Rate 500 g/Ha; for pest or weed control at 125 g/ha: Application Rate 125 g/Ha. As to the method:
as §1, §2

Another experiment concerns Lolium perenne (LOLPE). Particulars: Lolium perenne, post-emergence, 312 h, evaluated after 13 days, read-out: Control of weed species after post-emergence application, LOLPE (100=total damage to plant; 0=no damage to plant); for pest or weed control at 500 g/ha: Application Rate 500 g/Ha; for pest or weed control at 125 g/ha: Application Rate 125 g/Ha. As to the method: as §1, §2

For experiment [3], the system named is Amaranthus palmeri (AMAPA). Particulars: Amaranthus palmeri, post-emergence, 312 h, evaluated after 13 days, read-out: Control of weed species after post-emergence application, AMAPA (100=total damage to plant; 0=no damage to plant); for pest or weed control at 500 g/ha: Application Rate 500 g/Ha; for pest or weed control at 125 g/ha: Application Rate 125 g/Ha. The protocol: as §1, §2

In a further experiment the test system is Eleusine indica (ELEIN). Particulars: Eleusine indica, post-emergence, 312 h, evaluated after 13 days, read-out: Control of weed species after post-emergence application, ELEIN (100=total damage to plant; 0=no damage to plant); for pest or weed control at 500 g/ha: Application Rate 500 g/Ha; for pest or weed control at 125 g/ha: Application Rate 125 g/Ha. As to the method:
as §1, §2

The test system of experiment [4] is Digitaria sanguinalis (DIGSA). Particulars: Digitaria sanguinalis, post-emergence, 312 h, evaluated after 13 days, read-out: Control of weed species after post-emergence application, DIGSA (100=total damage to plant; 0=no damage to plant); for pest or weed control at 500 g/ha: Application Rate 500 g/Ha; for pest or weed control at 125 g/ha: Application Rate 125 g/Ha. The protocol:
as §1, §2

For experiment [5], the system named is Chenopodium album (CHEAL). Particulars: Chenopodium album, post-emergence, 312 h, evaluated after 13 days, read-out: Control of weed species after post-emergence application, CHEAL (100=total damage to plant; 0=no damage to plant); for pest or weed control at 500 g/ha: Application Rate 500 g/Ha; for pest or weed control at 125 g/ha: Application Rate 125 g/Ha. As to the method: as §1, §2

For experiment [6], the system named is Ipomoea hederacea (IPOHE). Particulars: Ipomoea hederacea, post-emergence, 312 h, evaluated after 13 days, read-out: Control of weed species after post-emergence application, IPOHE (100=total damage to plant; 0=no damage to plant); for pest or weed control at 500 g/ha: Application Rate 500 g/Ha; for pest or weed control at 125 g/ha: Application Rate 125 g/Ha. The protocol:
as §1, §2

Turning to `O=S(=O)([O-])CC[n+]1ccc(-c2nccs2)cn1` [Compound A1, 2-(4-thiazol-2-ylpyridazin-1-ium-1-yl)ethanesulfonate], the pest or weed control at 500 g/ha with Setaia fabei (SETFA) came to 50%; in experiment [1], 60%; in [2] it was 70%; in the experiment on Lolium perenne (LOLPE) it was 90%; in experiment [3] it was 100%; in the experiment on Eleusine indica (ELEIN) it was 50%. In addition, the pest or weed control at 500 g/ha came out at 100% in experiment [4], 70% in experiment [5] and 50% in experiment [6].

Turning to `Cn1ccc(-c2cc[n+](CCS(=O)(=O)[O-])nc2)n1` [Compound A2], the pest or weed control at 125 g/ha in the experiment with Setaia fabei (SETFA) is 20%; in experiment [1], 10%; in experiment [2], 30%; in the experiment on Lolium perenne (LOLPE) it was 0%; in [3], 0%; in the experiment on Eleusine indica (ELEIN) it was 10%. The pest or weed control at 125 g/ha in experiment [4] is 20%; in experiment [5] it was 0%; in experiment [6] it was 10%.

On to `O=S(=O)([O-])CCC[n+]1ccc(-c2ncco2)cn1` [Compound A3, 3-(4-oxazol-2-ylpyridazin-1-ium-1-yl)propane-1-sulfonate], for which the pest or weed control at 125 g/ha in the experiment with Setaia fabei (SETFA) was 80%; in experiment [1], 70%; in experiment [2] it was 70%; with Lolium perenne (LOLPE) it was 20%; in experiment [3] it was 20%; in the experiment on Eleusine indica (ELEIN), 50%. Moreover, the pest or weed control at 125 g/ha in [4] was 80%; in experiment [5], 60%; in [6], 40%.

In the case of `CCOP(=O)(CC[n+]1ccc(-c2ncco2)cn1)OCC` [Compound A75], the pest or weed control at 125 g/ha in the experiment on Setaia fabei (SETFA) was 0%; in [1], 0%; in the experiment on Lolium perenne (LOLPE), 0%; in experiment [3], 0%; with Eleusine indica (ELEIN), 0%; in experiment [4], 10%. Also, the pest or weed control at 125 g/ha came to 40% in [5] and 0% in experiment [6].

For the molecule `O=P(O)(O)CC[n+]1ccc(-c2ncco2)cn1` [Compound A77], the pest or weed control at 500 g/ha with Setaia fabei (SETFA) is 80%; in experiment [1], 60%; with Lolium perenne (LOLPE), 0%; in [3], 50%; with Eleusine indica (ELEIN) it was 0%; in [4], 90%. Moreover, the pest or weed control at 500 g/ha in experiment [5] came out at 70%; in [6], 60%.

For `O=P(O)(O)CCC[n+]1ccc(-c2ncco2)cn1` [Compound A78], the pest or weed control at 500 g/ha was 50% in the experiment with Setaia fabei (SETFA); 20% in [1]; 10% with Lolium perenne (LOLPE); 70% in [3]; 0% in the experiment with Eleusine indica (ELEIN); 60% in experiment [4]. The results for the pest or weed control at 500 g/ha in [5] and in experiment [6] were 80% and 50%, respectively.

Regarding `O=S(=O)([O-])CC[n+]1ccc(-c2ccno2)cn1` [Compound A79], the pest or weed control at 500 g/ha was determined as 90% with Setaia fabei (SETFA); 80% in experiment [1]; 70% in the experiment with Lolium perenne (LOLPE); 100% in [3]; 100% in the experiment with Eleusine indica (ELEIN); 90% in [4]. For the same molecule, the figures for the pest or weed control at 500 g/ha in experiment [5] and in experiment [6] were 90% and 80%, respectively.

Turning to `Cn1cc(-c2cc[n+](CCC(=O)O)nc2)nn1` [Compound A80], the pest or weed control at 500 g/ha is 40% with Setaia fabei (SETFA); 0% in [1]; 0% in the experiment on Lolium perenne (LOLPE); 40% in experiment [3]; 10% in the experiment on Eleusine indica (ELEIN); 60% in experiment [4]. In addition, the pest or weed control at 500 g/ha in experiment [5] and in experiment [6] was 10% each time.

`Cn1cc(-c2cc[n+](CCS(=O)(=O)[O-])nc2)nn1` [Compound A81]: the pest or weed control at 500 g/ha is 50% in the experiment on Setaia fabei (SETFA); 30% in [1]; 10% in the experiment with Lolium perenne (LOLPE); 50% in experiment [3]; 10% with Eleusine indica (ELEIN); 70% in [4]. Further, the pest or weed control at 500 g/ha was 40% in [5] and 10% in experiment [6].

`O=C(O)c1ccccc1C[n+]1ccc(-c2ncco2)cn1` [Compound A91]: the pest or weed control at 500 g/ha in the experiment on Setaia fabei (SETFA) turned out to be 20%; in [1], 20%; with Lolium perenne (LOLPE), 10%; in experiment [3] it was 40%; in the experiment with Eleusine indica (ELEIN), 40%; in experiment [4], 40%. Besides, the figures for the pest or weed control at 500 g/ha in experiment [5] and in experiment [6] were 60% and 20%, respectively.

On to `COC(=O)[C@@H](N)CC[n+]1ccc(-c2ncco2)cn1` [Compound A109], for which the pest or weed control at 500 g/ha is 90% in the experiment with Setaia fabei (SETFA); 60% in experiment [2]; 10% with Lolium perenne (LOLPE); 90% in experiment [3]; 90% in experiment [5]; 0% in experiment [6].

As to `COC(=O)CCC[n+]1ccc(-c2nccs2)cn1` [Compound A114], the pest or weed control at 500 g/ha in the experiment with Setaia fabei (SETFA) was 50%; in [1], 40%; in the experiment with Lolium perenne (LOLPE), 30%; in [3], 100%; in the experiment on Eleusine indica (ELEIN) it was 90%; in experiment [4], 70%. Besides, the figures for the pest or weed control at 500 g/ha in experiment [5] and in experiment [6] were 60% and 10%, respectively.

The values above are taken from patent publication US20210053957A1, “HERBICIDAL COMPOUNDS” (SYNGENTA PARTICIPATIONS AG, priority 2018, published 2021).
